As a reminder, the logP is the decadic logarithm of the partition coefficient of the neutral form, usually between octanol and water. A low value points to lower lipophilicity.

One data set can be described thus: log P by HPLC. Type of data set: physicochemical. The following applies: EEC directive 79/831 Annex V. A8 by HPLC (gradient method, acetonitrile/0.1% aqueous phosphoric acid).
Turning to `Cc1nc2nc(Cl)c(-c3ccccc3F)c(N3CCC(C(F)(F)F)CC3)n2n1` [compound 392], the logP was determined as 3.37.
The molecule `C=C(C)CN(CC)c1c(-c2ccc(F)cc2F)c(Cl)nc2nc(C3CC3)nn12` [compound 491] came in with a lipophilicity (logP) of 4.37.
For `CCCCONc1c(-c2ccccc2F)c(Cl)nc2nc(C)nn12` [compound 372], the log partition coefficient (logP) came to 2.98.
On the same count and under the same terms, for `Cc1nc2nc(Cl)c(-c3ccc(F)cc3F)c(N3CCC(C)(C)CC3)n2n1` [compound 288] the value was 4.01; for `Cc1nc2nc(Cl)c(-c3c(F)cccc3F)c(N3CCCC(C)C3)n2n1` (centres unmarked) [compound 312], 3.63; for `Cc1nc2nc(Cl)c(-c3ccccc3Cl)c(N3CCCCC3C)n2n1` (centres unmarked) [compound 401], 3.91.
Same read-out and setting: for `Cc1nc2nc(Cl)c(-c3ccc(F)cc3F)c(N3CCCC(C)C3)n2n1` (centres unmarked) [compound 286] the value was 3.74.
`Cc1nc2nc(Cl)c(-c3ccc(F)cc3F)c(N3CCc4ccccc4C3)n2n1` [compound 300] had a logP of 3.28.
Same read-out and setting: for `CN(CC1CC1(Cl)Cl)c1c(-c2ccc(F)cc2F)c(Cl)nc2nc(C3CC3)nn12` (centres unmarked) [compound 507] the value was 4.18; for `Cc1nc2nc(Cl)c(-c3c(F)cccc3F)c(NOCc3ccc(Cl)cc3Cl)n2n1` [compound 429], 3.69; for `CCC1=CCN(c2c(-c3c(F)cccc3F)c(Cl)nc3nc(C)nn23)CC1` [compound 316], 3.84.
In turn, `Cc1nc2nc(Cl)c(-c3ccc(F)cc3F)c(NC(C)CC(C)C)n2n1` (centres unmarked) [compound 301] gave a logP of 3.7. This logP and that of the molecule before are within 0.2 log units of each other.
For the molecule `Cc1nc2nc(F)c(-c3ccccc3Cl)c(NC(C)C(F)(F)F)n2n1` (centres unmarked) [compound 438], the logP came out at 2.97.
Molecule `Cc1nc2nc(Cl)c(-c3ccc(F)cc3F)c(N3CCSCC3)n2n1` [compound 297] showed a logP of 2.97.
Same read-out and setting: for `CCOC(=O)CN(CC)c1c(-c2ccc(F)cc2F)c(Cl)nc2nc(C)nn12` [compound 355] the value was 3.04; for `Cc1nc2nc(Cl)c(-c3c(F)cc(F)cc3F)c(N(C)CC3CC3(Cl)Cl)n2n1` (centres unmarked) [compound 502], 3.68.
`Cc1nc2nc(Cl)c(-c3ccccc3F)c(NC3CCCCC3)n2n1` [compound 397] gave a logP of 3.43.
For the molecule `Cc1nc2nc(Cl)c(-c3ccc(F)cc3F)c(N3CCCCC3C)n2n1` (centres unmarked) [compound 285], the logP is listed as 3.7.
In turn, `C=C(C)CN(CC)c1c(-c2c(F)cccc2F)c(Cl)nc2nc(C)nn12` [compound 339] gave a logP of 3.65.
`CCOC(=O)CN(c1c(-c2c(F)cccc2F)c(Cl)nc2nc(C)nn12)C1CC1` [compound 440] had a log partition coefficient (logP) of 3.
Molecule `Cc1nc2nc(Cl)c(-c3ccccc3F)c(NC(C)C)n2n1` [compound 386] had a logP of 2.63.
As for `CCN(CC)c1c(-c2ccccc2F)c(Cl)nc2nc(C)nn12` [compound 387], the logP is 2.95.
The molecule `Fc1ccc(-c2c(Cl)nc3nc(C4CC4)nn3c2N2CCc3ccccc3C2)c(F)c1` [compound 522] gave a lipophilicity (logP) of 3.87.
`Cc1nc2nc(Cl)c(-c3ccccc3F)c(NOCc3ccc(F)cc3)n2n1` [compound 369] yielded a logP of 2.98.
`Cc1nc2nc(Cl)c(-c3ccccc3F)c(NOCc3ccccc3Cl)n2n1` [compound 366] had a logP of 3.21.
Turning to `Cc1ccc(Nc2c(-c3c(F)cccc3F)c(Cl)nc3nc(C)nn23)cc1` [compound 444], the log partition coefficient (logP) came to 3.01.
Turning to `Cc1nc2nc(Cl)c(-c3ccccc3F)c(N3CCC(N4CCOCC4)CC3)n2n1` [compound 322], the lipophilicity (logP) is 1.26.
Same read-out and setting: with `Cc1nc2nc(Cl)c(-c3ccc(F)cc3F)c(N3CC(C)OC(C)C3)n2n1` (centres unmarked) [compound 455] the figure was 2.94; with `C=C(C)CNc1c(-c2c(F)cc(F)cc2F)c(Cl)nc2nc(C3CC3)nn12` [compound 466], 3.34.

Still in this data set, the particulars now being: HPLC, gradient method, acetonitrile/0.1% aqueous phosphoric acid; EEC directive 79/831 Annex V. A8.
Take `Cc1nc2nc(Cl)c(-c3c(F)cc(F)cc3F)c(N3CCC(C(F)(F)F)CC3)n2n1` [compound 67]: the logP is recorded as 3.6.
`Cc1nc2nc(Cl)c(-c3c(F)cccc3Cl)c(NCC(C)C)n2n1` [compound 248]: the logP was 3.14.
Molecule `C#CCN(C)c1c(-c2ccc(F)cc2F)c(Cl)nc2nc(C(F)(F)F)nn12` [compound 539] registered a logP of 3.65.
The same measure, in the same setting: with `CC(C)(C)CNc1c(-c2ccc(F)cc2F)c(Cl)nc2nc(C3CC3)nn12` [compound 646] the figure was 4; with `Cc1nc2nc(Cl)c(-c3c(F)cccc3F)c(N3CC(C)OC(C)C3)n2n1` (centres unmarked) [compound 169], 2.84.
`CC(C)Nc1c(-c2c(F)cccc2F)c(Cl)nc2nc(C3CC3)nn12` [compound 739] returned a lipophilicity (logP) of 3.14.
`Fc1cccc(F)c1-c1c(Cl)nc2nc(C3CC3)nn2c1N1CCCCC1` [compound 682] showed a lipophilicity (logP) of 3.9.
The same measure, in the same setting: for `CN(C)C1CCN(c2c(-c3ccc(F)cc3F)c(Cl)nc3nc(C4CC4)nn23)C1` (centres unmarked) [compound 605] the value was 1.46; for `Cc1nc2nc(Cl)c(-c3c(F)cc(F)cc3F)c(N(C)CCN(C)C)n2n1` [compound 148], 1.5; for `C=CCN(C)c1c(-c2ccccc2Cl)c(Cl)nc2nc(C)nn12` [compound 220], 3.19.
Still for that read-out and setting: for `Cc1nc2nc(Cl)c(-c3c(F)cc(F)cc3F)c(N(N)CC(C)C)n2n1` [compound 129] the value was 3.06.
In turn, `Cc1nc2nc(Cl)c(-c3c(F)cc(F)cc3F)c(NC(C)C(=O)OC(C)(C)C)n2n1` (centres unmarked) [compound 126] gave a logP of 3.44.
In turn, `CC(=O)NC1CCN(c2c(-c3ccc(F)cc3F)c(Cl)nc3nc(C(F)(F)F)nn23)C1` (centres unmarked) [compound 793] came in with a logP of 2.56.
In the case of `Cc1nc2nc(Cl)c(-c3c(F)cccc3Cl)c(NCC(C)(C)C)n2n1` [compound 249], the lipophilicity (logP) came out at 3.59.
The molecule `CCN(CC1CCCO1)c1c(-c2c(F)cc(F)cc2F)c(Cl)nc2nc(C)nn12` (centres unmarked) [compound 159] displayed a lipophilicity (logP) of 3.26.
In the case of `Cc1nc2nc(Cl)c(-c3ccc(F)cc3F)c(N(C)CC3OCCO3)n2n1` [compound 202], the logP worked out at 2.56.
Take `COCCN(C)c1c(-c2ccc(F)cc2F)c(Cl)nc2nc(C3CC3)nn12` [compound 669]: the log partition coefficient (logP) is 3.16.
On to `CC(Nc1c(-c2ccc(Cl)cc2Cl)c(Cl)nc2nc(C3CC3)nn12)C(F)(F)F` (single isomer, unassigned) [compound 710], for which the lipophilicity (logP) is listed as 4.12.
The molecule `COC(=O)C1CCN(c2c(-c3ccc(F)cc3F)c(Cl)nc3nc(C(F)(F)F)nn23)CC1` [compound 803] had a logP of 3.81.
`Cc1nc2nc(Cl)c(-c3c(F)cc(F)cc3F)c(N(C)CC(C)C)n2n1` [compound 154] returned a logP of 3.63. The logP values of the last two molecules are within 0.2 log units of each other.
`C=C(C)CN(CC)c1c(-c2ccc(Cl)cc2Cl)c(Cl)nc2nc(C)nn12` [compound 783] came in with a logP of 4.56.
On the same count and under the same terms, with `CC(C)(C)CNc1c(-c2ccc(F)cc2F)c(Cl)nc2nc(C(F)(F)F)nn12` [compound 527] the figure was 4.4; with `Fc1cc(F)c(-c2c(Cl)nc3nc(C(F)(F)F)nn3c2N2CCSCC2)c(F)c1` [compound 110], 4.09; with `CCc1nc2nc(Cl)c(-c3c(F)cc(F)cc3F)c(NCC#N)n2n1` [compound 23], 2.27.
Turning to `CCC(C)Nc1c(-c2ccc(F)cc2F)c(Cl)nc2nc(C(F)(F)F)nn12` (centres unmarked) [compound 528], the logP was determined as 4.03.
Turning to `Fc1ccc(-c2c(Cl)nc3nc(C(F)(F)F)nn3c2NCC2CC2)c(F)c1` [compound 533], the log partition coefficient (logP) was determined as 3.8.
`CCN(CCN(C)C)c1c(-c2ccc(F)cc2F)c(Cl)nc2nc(C3CC3)nn12` [compound 723]: the log partition coefficient (logP) was 1.65.
Same read-out and setting: for `Fc1cccc(F)c1-c1c(Cl)nc2nc(C3CC3)nn2c1NCC(F)(F)F` [compound 771] the value was 3.04.
The molecule `C=CCN(C)c1c(-c2ccc(F)cc2F)c(Cl)nc2nc(C3CC3)nn12` [compound 664] registered a lipophilicity (logP) of 3.61.
Molecule `CN(C)c1c(-c2ccccc2Cl)c(Cl)nc2nc(C3CC3)nn12` [compound 36] registered a log partition coefficient (logP) of 3.13.
The same measure, in the same setting: for `CCOC(=O)CN(CC)c1c(-c2ccc(F)cc2F)c(Cl)nc2nc(C(F)(F)F)nn12` [compound 551] the value was 4.05; for `CC(C)CN(C)c1c(-c2ccc(F)cc2Cl)c(Cl)nc2nc(C3CC3)nn12` [compound 627], 4.51.
`Cc1nc2nc(Cl)c(-c3c(F)cccc3F)c(N3OCCC3C)n2n1` (centres unmarked) [compound 578]: the lipophilicity (logP) worked out at 2.61.
Still for that read-out and setting: for `CC1CCCCN1c1c(-c2c(F)cccc2F)c(Cl)nc2nc(C3CC3)nn12` (centres unmarked) [compound 680] the value was 3.17; for `CC(C)C(C)Nc1c(-c2c(F)cc(F)cc2F)c(Cl)nc2nc(C3CC3)nn12` (centres unmarked) [compound 581], 4.03; for `Fc1ccc(-c2c(Cl)nc3nc(C4CC4)nn3c2N2CCC(Br)CC2)c(F)c1` [compound 732], 4.08.
As for `Cc1nc2nc(Cl)c(-c3c(F)cccc3F)c(NC3CCCCC3)n2n1` [compound 186], the logP is recorded as 3.28.
`CC(C)CN(C)c1c(-c2ccc(F)cc2F)c(Cl)nc2nc(C3CC3)nn12` [compound 668] showed a logP of 4.07.
In the case of `CCc1nc2nc(Cl)c(-c3c(F)cc(F)cc3F)c(N(N)CC(C)C)n2n1` [compound 127], the logP is reported as 3.47.
Still for that read-out and setting: for `CC(C)CNc1c(-c2ccc(F)cc2F)c(Cl)nc2nc(C3CC3)nn12` [compound 644] the value was 3.38.
On the same count and under the same terms, with `CCN(CCC#N)c1c(-c2c(F)cccc2F)c(Cl)nc2nc(C)nn12` [compound 569] the figure was 2.41; with `CC(C)NNc1c(-c2c(F)cc(F)cc2F)c(Cl)nc2nc(C(F)(F)F)nn12` [compound 84], 3.68.
Consider `COC(=O)C(CO)Nc1c(-c2c(F)cc(F)cc2F)c(Cl)nc2nc(C)nn12` (centres unmarked) [compound 115], for which the logP amounted to 1.93.
For `C=C(C)CNc1c(-c2ccc(F)cc2F)c(Cl)nc2nc(C)nn12` [compound 201], the logP is on record as 2.72.
The molecule `CC1=CCCN(c2c(-c3c(F)cc(F)cc3F)c(Cl)nc3nc(C)nn23)C1` [compound 85] had a logP of 3.57.

The values above are taken from patent US7186831B2, “5-halo-2-alkyl[1,2,4]triazolo[1,5-a]pyrimidin-7-amines” (priority 2001, dated 2007).
